Converted amounts (≈) assume the structure as drawn.

For test [1], the system named is Mycolicibacterium smegmatis. As to the kind of experiment: Antimycobacterial activity against Mycobacterium smegmatis str. MC2 155 incubated for 30 hrs by turbidometric assay. In kind it is functional. The conditions noted are these: str. MC2 155, 30 h.
Another test has as its system A549. As to the kind of experiment: Cytotoxicity against human A549 cells incubated for 48 hrs by SRB assay. The class given is cell-based. The conditions noted are these: A549, 48 h. A general note: In SRB staining, fixed cells bind dye roughly in proportion to their protein.

The term MIC denotes the lowest concentration found to suppress growth. Low values mean a more susceptible organism, high ones a less susceptible organism. The term IC50 denotes the concentration that inhibits the measured activity by half. Read a high IC50 as weaker potency. As to `O=C(Cn1cc(-c2ccccc2)nn1)Nc1c(C(F)(F)F)n[nH]c1-c1ccccc1`, in test [1], the minimal inhibitory concentration (MIC) worked out at 35.9 µg/mL (≈ 87.1 µM). It took 52.2 µg/mL (≈ 127 µM) to reach half-maximal inhibition with A549 (IC50).

`O=C(Cn1cc(-c2ccc(OC(F)(F)F)cc2)nn1)Nc1c(C(F)(F)F)n[nH]c1-c1ccccc1`: in test [1], it took 35.4 µg/mL (≈ 71.3 µM) to inhibit growth (MIC). Also, in the test on A549, 45.3 µg/mL (≈ 91.2 µM) corresponded to half-maximal inhibition (IC50).

For the compound `O=C(Cn1cc(-c2ccc(-c3ccccc3)cc2)nn1)Nc1c(C(F)(F)F)n[nH]c1-c1ccccc1`, the MIC in test [1] came out at 31.8 µg/mL (≈ 65 µM). In the test on A549, this compound had an IC50 of 57 µg/mL (≈ 117 µM).

In test [1], `CC(C)(C)c1ccc(-c2cn(CC(=O)Nc3c(C(F)(F)F)n[nH]c3-c3ccccc3)nn2)cc1` returned an MIC of more than 100 µg/mL. Besides, in the test on A549, inhibition was half-maximal at 25.8 µg/mL (≈ 55.2 µM) (IC50).

`CCCCCc1ccc(-c2cn(CC(=O)Nc3c(C(F)(F)F)n[nH]c3-c3ccccc3)nn2)cc1` came in with an MIC in test [1] of 35.4 µg/mL (≈ 73.3 µM). Also, the IC50 in the test with A549 was more than 100 µg/mL.

For the compound `COc1ccc(-c2cn(CC(=O)Nc3c(C(F)(F)F)n[nH]c3-c3ccccc3)nn2)c(C)c1`, in test [1], the lowest concentration to inhibit growth (MIC) was 85.6 µg/mL (≈ 188 µM). Also, the concentration for half-maximal inhibition (IC50) with A549 was 54 µg/mL (≈ 118 µM).

Take `Cc1cccc(-c2cn(CC(=O)Nc3c(C(F)(F)F)n[nH]c3-c3ccccc3)nn2)c1`: in test [1], the minimum inhibitory concentration (MIC) came to 29.9 µg/mL (≈ 70.2 µM). In addition, it took 60.6 µg/mL (≈ 142 µM) to reach half-maximal inhibition with A549 (IC50).

`O=C(Cn1cc(-c2ccccc2C(F)(F)F)nn1)Nc1c(C(F)(F)F)n[nH]c1-c1ccccc1`: the lowest concentration to inhibit growth in test [1] (MIC) was 53 µg/mL (≈ 110 µM). Also, the concentration for half-maximal inhibition (IC50) in the test on A549 was 64.2 µg/mL (≈ 134 µM).

`CCOC(=O)c1cn(CC(=O)Nc2c(C(F)(F)F)n[nH]c2-c2ccccc2)nn1`: in test [1], it took 27.7 µg/mL (≈ 67.9 µM) to inhibit growth (MIC). Also, the IC50 with A549 was more than 100 µg/mL.

`CCCCc1cn(CC(=O)Nc2c(C(F)(F)F)n[nH]c2-c2ccccc2)nn1`: the MIC in test [1] was found to be 65.5 µg/mL (≈ 167 µM). The compound further registered an IC50 in the test with A549 of more than 100 µg/mL.

Regarding `O=C(Cn1cc(COc2cccc3c(C(F)(F)F)cc(=O)oc23)nn1)Nc1c(C(F)(F)F)n[nH]c1-c1ccccc1`, the MIC in test [1] worked out at 53.7 µg/mL (≈ 92.8 µM). This compound also had a half-maximal inhibitory concentration (IC50) with A549 of more than 100 µg/mL.

`O=C(Cn1cc(CNc2cccc(C(F)(F)F)c2)nn1)Nc1c(C(F)(F)F)n[nH]c1-c1ccccc1` gave a minimum inhibitory concentration (MIC) in test [1] of 99.6 µg/mL (≈ 196 µM). In the test on A549, this compound showed an IC50 of 25.3 µg/mL (≈ 49.7 µM).

The compound `COc1cccc(NCc2cn(CC(=O)Nc3c(C(F)(F)F)n[nH]c3-c3ccccc3)nn2)c1` returned an MIC in test [1] of 53.9 µg/mL (≈ 114 µM). The compound further had an IC50 in the test with A549 of 38.3 µg/mL (≈ 81.3 µM).

In turn, `COc1ccc(NCc2cn(CC(=O)Nc3c(C(F)(F)F)n[nH]c3-c3ccccc3)nn2)cc1OC` yielded a minimum inhibitory concentration (MIC) in test [1] of 58.3 µg/mL (≈ 116 µM). The 50% inhibitory concentration (IC50) with A549 is more than 100 µg/mL.

Compound `COc1cc(NCc2cn(CC(=O)Nc3c(C(F)(F)F)n[nH]c3-c3ccccc3)nn2)cc(OC)c1OC` returned an MIC in test [1] of 78.3 µg/mL (≈ 147 µM). Moreover, the 50% inhibitory concentration (IC50) in the test with A549 is more than 100 µg/mL.

In test [1], `Cc1cccc(C)c1NCc1cn(CC(=O)Nc2c(C(F)(F)F)n[nH]c2-c2ccccc2)nn1` gave an MIC of 64.1 µg/mL (≈ 136 µM). The compound further came in with an IC50 in the test with A549 of 52.9 µg/mL (≈ 113 µM).

Regarding `COc1ccc(C(=O)c2cn(CC(=O)Nc3c(C(F)(F)F)n[nH]c3-c3ccccc3)nn2)cc1`, inhibition of growth in test [1] (MIC) required 15.3 µg/mL (≈ 32.6 µM). The same compound had an IC50 in the test on A549 of 80.7 µg/mL (≈ 172 µM).

For `COc1ccc(C(=O)c2cn(CC(=O)Nc3c(C(F)(F)F)n[nH]c3-c3ccccc3)nn2)cc1OC`, the MIC in test [1] amounted to 65.7 µg/mL (≈ 131 µM). Moreover, the IC50 with A549 worked out at 26.8 µg/mL (≈ 53.6 µM).

Take `O=C(Cn1cc(C(=O)c2cn(-c3ccccc3)nc2-c2ccccc2)nn1)Nc1c(C(F)(F)F)n[nH]c1-c1ccccc1`: it took 28.8 µg/mL (≈ 49.5 µM) to inhibit growth in test [1] (MIC). The same compound yielded a half-maximal inhibitory concentration (IC50) with A549 of 68 µg/mL (≈ 117 µM).

In turn, `O=C(Cn1cc(C(=O)c2cn(-c3ccccc3)nc2-c2ccc(Cl)cc2)nn1)Nc1c(C(F)(F)F)n[nH]c1-c1ccccc1` gave a minimum inhibitory concentration (MIC) in test [1] of more than 100 µg/mL. Moreover, the IC50 with A549 is more than 100 µg/mL.

Compound `Cc1ccc(-c2nn(-c3ccccc3)cc2C(=O)c2cn(CC(=O)Nc3c(C(F)(F)F)n[nH]c3-c3ccccc3)nn2)cc1` came in with a minimal inhibitory concentration (MIC) in test [1] of 94.5 µg/mL (≈ 158 µM). In addition, the IC50 in the test on A549 is more than 100 µg/mL.

Compound `COc1ccc(-c2nn(-c3ccccc3)cc2C(=O)c2cn(CC(=O)Nc3c(C(F)(F)F)n[nH]c3-c3ccccc3)nn2)cc1` returned a minimum inhibitory concentration (MIC) in test [1] of 25.3 µg/mL (≈ 41.2 µM). The compound further yielded an IC50 in the test on A549 of 59.6 µg/mL (≈ 97.3 µM).

`NNC(=O)c1cn(CC(=O)Nc2c(C(F)(F)F)n[nH]c2-c2ccccc2)nn1` had a minimal inhibitory concentration (MIC) in test [1] of 33.9 µg/mL (≈ 85.9 µM). Besides, the IC50 in the test with A549 was 67.6 µg/mL (≈ 171 µM).

`O=C(Cn1cc(C(=O)N/N=C/c2ccc(C(F)(F)F)cc2)nn1)Nc1c(C(F)(F)F)n[nH]c1-c1ccccc1` came in with a minimal inhibitory concentration (MIC) in test [1] of more than 100 µg/mL. The IC50 with A549 is more than 100 µg/mL.

`O=C(Cn1cc(C(=O)N/N=C/c2ccccc2C(F)(F)F)nn1)Nc1c(C(F)(F)F)n[nH]c1-c1ccccc1` gave an MIC in test [1] of 16.2 µg/mL (≈ 29.4 µM). The compound also had a 50% inhibitory concentration (IC50) in the test with A549 of more than 100 µg/mL.

In turn, `O=C(Cn1cc(C(=O)N/N=C/c2cccc(Oc3ccccc3)c2)nn1)Nc1c(C(F)(F)F)n[nH]c1-c1ccccc1` displayed an MIC in test [1] of 16.6 µg/mL (≈ 28.9 µM). The compound also had an IC50 in the test with A549 of more than 100 µg/mL.

`COc1ccc(/C=N/NC(=O)c2cn(CC(=O)Nc3c(C(F)(F)F)n[nH]c3-c3ccccc3)nn2)cc1` registered an MIC in test [1] of 45.6 µg/mL (≈ 88.9 µM). For the same compound, in the test with A549, the half-maximal inhibitory concentration (IC50) was more than 100 µg/mL.

The compound `COc1ccc(/C=N/NC(=O)c2cn(CC(=O)Nc3c(C(F)(F)F)n[nH]c3-c3ccccc3)nn2)cc1OC` gave an MIC in test [1] of 41.3 µg/mL (≈ 76.1 µM). Further, the concentration for half-maximal inhibition (IC50) in the test on A549 was more than 100 µg/mL.

Turning to `COc1cccc2c1C(=O)c1c(O)c3c(c(O)c1C2=O)C[C@@](O)(C(=O)CO)C[C@@H]3O[C@H]1C[C@H](N)[C@H](O)[C@H](C)O1` [DOXORUBICIN], it took 8.5 µg/mL (≈ 15.6 µM) to reach half-maximal inhibition with A549 (IC50).

`NNC(=O)c1ccncc1` [ISONIAZID] registered an MIC in test [1] of 12.1 µg/mL (≈ 88 µM).

In turn, `CO[C@H]1/C=C/O[C@@]2(C)Oc3c(C)c(O)c4c(O)c(c(/C=N/N5CCN(C)CC5)c(O)c4c3C2=O)NC(=O)/C(C)=C\C=C\[C@H](C)[C@H](O)[C@@H](C)[C@@H](O)[C@@H](C)[C@H](OC(C)=O)[C@@H]1C` [RIFAMPIN] had an MIC in test [1] of 2.15 µg/mL (≈ 2.61 µM).

Source of the values: ChEMBL document CHEMBL3596091, “Synthesis and evaluation of novel fluorinated pyrazolo-1,2,3-triazole hybrids as antimycobacterial agents” (Bioorg Med Chem Lett, 2015).
